{"source": "patent US6143769A", "about": "“Phenylacetic acid benzylamides” (Karl Thomae GmbH, priority 1983, dated 2000)", "key": {"clinical [1]": {"assay": "clinical", "settings": "human, plasma, po", "method": "(§1) More specifically, the studies which follow were carried out on healthy male volunteers in whom the levels of glucose and active substance in the course of time were determined:\n(§2) 0.25 hours after oral administration a standard breakfast (B) was eaten, 5.5 hours after administration a standard lunch (L) was eaten and 10 hours after administration a standard evening meal (D) was eaten. Blood samples were taken at different times. The glucose concentrations were determined from whole blood according to study 1. The AG-EE 623 ZW concentrations in the plasma were determined by a stereospecific competitive enzyme immunoassay (ELISA) with a detection limit of 0.5 ng/ml.\n(§3) The AG-EE 623 ZW-specific ELISA used is based on polyclonal rabbit antibodies directed against AG-EE 623 ZW covalently bound to human serum albumin. The cross reaction with AG-EE 624 ZW is less than 1:100. Microtitre immunoplates were coated with these antibodies and, after washing and blocking of the plates, incubated with standard or unknown plasma samples at 4° C. for one hour with shaking. Then AG-EE 623 ZW coupled to horse-radish peroxidase was added and incubated for a further 4 hours under the same conditions. 1,2-phenylenediamine was used as substrate for photometrically quantifying the bound enzyme-coupled molecules."}, "[2]": {"assay": "Study 3: plasma concentration of active substance, single test subject", "type": "in vivo, human"}, "clinical [3]": {"assay": "clinical", "settings": "human, plasma, 1 mg", "method": "as §1\nIn the interests of more precise clarification, study 5 was carried out (randomised, open, crossover). […] 2 hours after administration a standard breakfast (B) was eaten, 5 hours after administration a standard lunch (L) was eaten and 10 hours after administration a standard dinner (D) was eaten. Blood samples were taken at different times. The glucose concentrations were measured in the plasma as in study 1. […] The plasma concentrations of AG-EE 624 ZW were calculated as the difference between the two concentrations found:"}, "rats": {"tested_on": "rats", "assay": "Acute toxicity of (S)-enantiomer, single oral dose 1000 mg/kg, rats", "type": "in vivo", "settings": "1000 mg/kg p.o."}, "[4]": {"settings": "for Maximum concentration: 2 mg tablet p.o.", "method": "as §1, §2, §3"}, "blood sugar": {"tested_on": "blood sugar", "assay": "Blood sugar-lowering effect of the enantiomers in fasted female rats (oral)", "type": "in vivo", "settings": "0.015 mg/kg p.o.", "protocol": "The substances to be investigated were suspended in 1.5% methylcellulose immediately before the start of the test and administered into the oesophagus. […] Glucose was measured in the supernatant by the hexokinase method using an analytical photometer. The statistical evaluation was carried out using the Student's t-test with p=0.05 as the limit of significance. Table 1 which follows contains the statistically significant values as percentage deviations from the control: […]"}}, "note": "Like-named read-outs stand apart in the source and are kept apart here."}
{"smiles": "CCOc1cc(CC(=O)N[C@@H](CC(C)C)c2ccccc2N2CCCCC2)ccc1C(=O)O", "note": "[AG-EE 623 ZW, (S)(+)-2-ethoxy-4-[N-[1-(2-piperidino-phenyl)-3-methyl-1-butyl]aminocarbonylmethyl]-benzoic acid]", "values": [{"measurement": "Tmax", "setting": "clinical [1]", "result": 30, "unit": "min"}, {"measurement": "AUC(0-inf)", "setting": "clinical [1]; 0.5 mg", "result": "14.3 ± 8.6", "unit": "ng·h/mL"}, {"measurement": "Cmax", "setting": "clinical [1]; 0.5 mg", "result": "15 ± 8", "unit": "ng/mL"}, {"measurement": "MRT", "setting": "clinical [1]; 0.5 mg", "result": "54 ± 12", "unit": "min"}, {"measurement": "Tmax", "setting": "clinical [1]; 0.5 mg", "result": "36 ± 6", "unit": "min"}, {"measurement": "concentration at 0.25 h", "setting": "clinical [1]; 0.5 mg", "result": 8.4, "unit": "ng/mL"}, {"measurement": "concentration at 0.5 h", "setting": "clinical [1]; 0.5 mg", "result": 4.7, "unit": "ng/mL"}, {"measurement": "concentration at 0.75 h", "setting": "clinical [1]; 0.5 mg", "result": 1.6, "unit": "ng/mL"}, {"measurement": "concentration at 1 h", "setting": "clinical [1]; 0.5 mg", "result": 7, "unit": "ng/mL"}, {"measurement": "concentration at 1.5 h", "setting": "clinical [1]; 0.5 mg", "result": 2.6, "unit": "ng/mL"}, {"measurement": "concentration at 2.09 h", "setting": "clinical [1]; 0.5 mg", "result": 1.2, "unit": "ng/mL"}, {"measurement": "concentration at 3 h", "setting": "clinical [1]; 0.5 mg", "result": 0.3, "unit": "ng/mL"}, {"measurement": "half-life", "setting": "clinical [1]; 0.5 mg", "result": "30 ± 12", "unit": "min"}, {"measurement": "concentration at 0.25 h", "setting": "clinical [1]; 1 mg", "result": 14.5, "unit": "ng/mL"}, {"measurement": "concentration at 0.5 h", "setting": "clinical [1]; 1 mg", "result": 27.9, "unit": "ng/mL"}, {"measurement": "concentration at 0.75 h", "setting": "clinical [1]; 1 mg", "result": 24.2, "unit": "ng/mL"}, {"measurement": "concentration at 1 h", "setting": "clinical [1]; 1 mg", "result": 15.3, "unit": "ng/mL"}, {"measurement": "concentration at 1.5 h", "setting": "clinical [1]; 1 mg", "result": 7.8, "unit": "ng/mL"}, {"measurement": "concentration at 2.09 h", "setting": "clinical [1]; 1 mg", "result": 4.7, "unit": "ng/mL"}, {"measurement": "concentration at 3 h", "setting": "clinical [1]; 1 mg", "result": 1.4, "unit": "ng/mL"}, {"measurement": "concentration at 0.25 h", "setting": "clinical [1]; 2 mg", "result": 24.1, "unit": "ng/mL"}, {"measurement": "concentration at 0.5 h", "setting": "clinical [1]; 2 mg", "result": 50.4, "unit": "ng/mL"}, {"measurement": "concentration at 0.75 h", "setting": "clinical [1]; 2 mg", "result": 41.1, "unit": "ng/mL"}, {"measurement": "concentration at 1 h", "setting": "clinical [1]; 2 mg", "result": 29.9, "unit": "ng/mL"}, {"measurement": "concentration at 1.5 h", "setting": "clinical [1]; 2 mg", "result": 13.5, "unit": "ng/mL"}, {"measurement": "concentration at 2.09 h", "setting": "clinical [1]; 2 mg", "result": 8.8, "unit": "ng/mL"}, {"measurement": "concentration at 3 h", "setting": "clinical [1]; 2 mg", "result": 4.3, "unit": "ng/mL"}, {"measurement": "concentration at 4 h", "setting": "clinical [1]; 2 mg", "result": 1.5, "unit": "ng/mL"}, {"measurement": "concentration at 5 h", "setting": "clinical [1]; 2 mg", "result": 0.4, "unit": "ng/mL"}, {"measurement": "concentration at 6 h", "setting": "clinical [1]; 2 mg", "result": 0.2, "unit": "ng/mL"}, {"measurement": "Maximum level relative to level after same dose of AG-EE 388 ZW", "setting": "[2]; 2 mg", "result": "about one third"}, {"measurement": "Maximum concentration", "setting": "[2]; 2 mg capsule, listed as 623", "result": 24, "unit": "ng/mL"}, {"measurement": "Active substance concentration", "setting": "[2]; 2 mg, 1.25 h", "result": 0, "unit": "ng/mL"}, {"measurement": "Active substance concentration", "setting": "[2]; 2 mg, 2.50 h", "result": 0, "unit": "ng/mL"}, {"measurement": "Active substance concentration", "setting": "[2]; 2 mg, 3.00 h", "result": 0, "unit": "ng/mL"}, {"measurement": "Active substance concentration", "setting": "[2]; 2 mg, 3.50 h", "result": 0, "unit": "ng/mL"}, {"measurement": "Active substance concentration", "setting": "[2]; 2 mg, 4.00 h", "result": 0, "unit": "ng/mL"}, {"measurement": "Active substance concentration", "setting": "[2]; 2 mg, 6.00 h", "result": 0, "unit": "ng/mL"}, {"measurement": "Active substance concentration", "setting": "[2]; 2 mg, 7.00 h", "result": 0, "unit": "ng/mL"}, {"measurement": "Cmax", "setting": "[2]; human, plasma, po, 2 mg, 2 mg capsule, read-out: Maximum concentration", "result": "22 to 24", "unit": "ng/mL"}, {"measurement": "concentration at 1.5 h", "setting": "[2]; human, plasma, po, 2 mg, 1.50 h", "result": 22, "unit": "ng/mL"}, {"measurement": "concentration at 1.75 h", "setting": "[2]; human, plasma, po, 2 mg, 1.75 h", "result": 24, "unit": "ng/mL"}, {"measurement": "concentration at 2 h", "setting": "[2]; human, plasma, po, 2 mg, 2.00 h", "result": 7, "unit": "ng/mL"}, {"measurement": "MRT", "setting": "clinical [3]; iv", "result": "54 ± 36", "unit": "min"}, {"measurement": "clearance", "setting": "clinical [3]; iv", "result": "443 ± 140", "unit": "mL/min"}, {"measurement": "bioavailability", "setting": "clinical [3]; po", "result": "76 ± 20", "unit": "%"}, {"measurement": "Toxicity", "setting": "rats", "result": "virtually non-toxic"}, {"measurement": "Deaths", "setting": "rats; 5 male and 5 female rats, 14 days", "result": "no animals died"}, {"measurement": "Concentration (mean)", "setting": "[4]; 0.5 mg tablet, 0 h", "result": 0.0, "unit": "ng/mL"}, {"measurement": "Concentration (mean)", "setting": "[4]; 0.5 mg, 4.00 h", "result": 0.0, "unit": "ng/mL"}, {"measurement": "Concentration (mean)", "setting": "[4]; 0.5 mg, 5.00 h", "result": 0.0, "unit": "ng/mL"}, {"measurement": "Concentration (mean)", "setting": "[4]; 0.5 mg, 6.00 h", "result": 0.0, "unit": "ng/mL"}, {"measurement": "Concentration (mean)", "setting": "[4]; 0.5 mg, 8.00 h", "result": 0.0, "unit": "ng/mL"}, {"measurement": "Concentration (mean)", "setting": "[4]; 0.5 mg, 10.00 h", "result": 0.0, "unit": "ng/mL"}, {"measurement": "Concentration (mean)", "setting": "[4]; 0.5 mg, 24.00 h", "result": 0.0, "unit": "ng/mL"}, {"measurement": "Time at which plasma level is below detection limit", "setting": "[4]; 1 mg tablet", "result": 3.0, "unit": "h"}, {"measurement": "Concentration (mean)", "setting": "[4]; 1 mg tablet, 0 h", "result": 0.0, "unit": "ng/mL"}, {"measurement": "Concentration (mean)", "setting": "[4]; 1 mg, 8.00 h", "result": 0.0, "unit": "ng/mL"}, {"measurement": "Concentration (mean)", "setting": "[4]; 1 mg, 10.00 h", "result": 0.0, "unit": "ng/mL"}, {"measurement": "Concentration (mean)", "setting": "[4]; 1 mg, 24.00 h", "result": 0.0, "unit": "ng/mL"}, {"measurement": "Time at which plasma level is below detection limit", "setting": "[4]; 2 mg tablet", "result": 4.0, "unit": "h"}, {"measurement": "Maximum concentration", "setting": "[4]", "result": "50.4 ± 26.3", "unit": "ng/mL"}, {"measurement": "Maximum concentration", "setting": "[4]; listed as 623", "result": "50 ± 26", "unit": "ng/mL"}, {"measurement": "Concentration (mean)", "setting": "[4]; 2 mg tablet, 0 h", "result": 0.0, "unit": "ng/mL"}, {"measurement": "Concentration (mean)", "setting": "[4]; 2 mg, 8.00 h", "result": 0.0, "unit": "ng/mL"}, {"measurement": "Concentration (mean)", "setting": "[4]; 2 mg, 10.00 h", "result": 0.0, "unit": "ng/mL"}, {"measurement": "Concentration (mean)", "setting": "[4]; 2 mg, 24.00 h", "result": 0.0, "unit": "ng/mL"}, {"measurement": "Fall of plasma levels (comparison)", "setting": "[4]; versus AG-EE 388 ZW, identical dose", "result": "fall more rapidly towards zero than the AG-EE 388 ZW levels"}, {"measurement": "Glucose, percentage deviation from control", "setting": "blood sugar; 1 h", "result": -17, "unit": "percentage deviation"}, {"measurement": "Glucose, percentage deviation from control", "setting": "blood sugar; 2 h", "result": -36, "unit": "percentage deviation"}, {"measurement": "Glucose, percentage deviation from control", "setting": "blood sugar; 3 h", "result": -37, "unit": "percentage deviation"}]}
